Earlier results as cited in article PMC8198792, “Prediction of Anticancer Peptides with High Efficacy and Low Toxicity by Hybrid Model Based on 3D Structure of Peptides” (International Journal of Molecular Sciences, 2021).
Where two headings read alike, the source gives them in different places.

System: cancer cell lines
Design: method as in 6 sources, ref CancerPPD [45] and SATPdb ||| ref CancerPPD/SATPdb ||| ref CancerPPD, SATPdb, Swissprot (PDB) ||| ref CancerPPD/SATPdb/Swissprot(PDB) ||| ref CancerPPD / SATPdb ||| ...
Settings: cited from earlier work
From the text: Supplement ijms-22-05630-s001.zip/ACPs(seguence).xlsx, sheet "D1" | column: Activity || Supplement ijms-22-05630-s001.zip/ACPs(seguence).xlsx, sheet "D2" | column: Activity || Supplement ijms-22-05630-s001.zip/ACPs(seguence).xlsx, sheet "D3" | column: Activity || (+ 2 further places)

[1] = ACPs dataset D1, 1 = ACP (positive), 0 = non-ACP (negative), label taken from databases, ref CancerPPD [45] and SATPdb
[2] = ACPs dataset D4 (sheet "D4"), label 1 = ACP (CancerPPD ID), 0 = non-ACP (non-anticancer AMP, SATPdb ID), ref CancerPPD [45] and SATPdb
[3] = ACPs dataset D4 (sheet "D4"), label 1 = ACP, experimentally validated ACPs, ref CancerPPD [45] and SATPdb
[4] = ACPs dataset D5 (sheet "D5"), label 1 = ACP (positive set), sequences with CancerPPD/SATPdb ID, ref CancerPPD, SATPdb
[5] = ACPs dataset sheet D2, 1 = ACP (CancerPPD/SATPdb ID), 0 = non-ACP (Swissprot/PDB ID), ref CancerPPD, SATPdb, Swissprot (PDB)
[6] = ACPs dataset D1, label 1 = ACP, 0 = non-ACP (non-anticancer AMPs from SATPdb), ref CancerPPD/SATPdb
[7] = ACPs dataset D3 (supplement sheet "D3"), 1 = ACP, 0 = non-ACP, ref CancerPPD [45] and SATPdb
[8] = ACPs dataset D5 (sheet "D5"), label 1 = ACP (positive set), 0 = non-ACP (negative set), ref CancerPPD [45] and SATPdb
[9] = ACPs dataset D4 (sheet "D4"), label 1 = ACP, 0 = non-ACP, ref CancerPPD / SATPdb

GGLKKLGKKLEGAGKRVFNAAEKALPVVAGAKALG [satpdb11024]
Activity [1]: 0 | Activity [2]: 0

GGLKKLGKKLEGVGKRVFKASEKALPVLTGYKAIG [satpdb10158]
Activity [1]: 0 | Activity [2]: 0

GGLRSLGRKILRAWKKYGPIIVPIIRIG [compound 4394]
Activity [1]: 1 | Activity [3]: 1 | Activity [4]: 1 | Activity [5]: 1

GIACGESCVFLGCFIPGCSCKSKVCYFN [compound 4397]
Activity [1]: 1 | Activity [3]: 1 | Activity [4]: 1 | Activity [5]: 1

GIFGKILGAGKKVLCGLSGLC [satpdb11792]
Activity [6]: 0 | Activity [2]: 0

GIFLKVLGVGKKVLCGVSGLC [satpdb12520]
Activity [6]: 0 | Activity [2]: 0

GIFSKFGGKAIKNLFIKGAKNIGKEVGMDVIRTGIDVAGCKIKGEC [satpdb10976]
Activity [1]: 0 | Activity [2]: 0

GIFSLFKAGAKFFGKHLLKQAGKAGAEHLACKATNQC [satpdb10483]
Activity [1]: 0 | Activity [2]: 0

GIFSLIKGAAKLITKTVAKEAGKTGLELMACKVTNQC [satpdb12414]
Activity [6]: 0 | Activity [2]: 0

GIFSSRKCKTPSKTFKGYCTRDSNCDTSCRYEGYPAGD [satpdb10659]
Activity [1]: 0 | Activity [2]: 0

GIGGVLLSAGKAALKGLAKVLAEKYAN [compound 4400]
Activity [1]: 1 | Activity [3]: 1 | Activity [4]: 1 | Activity [5]: 1

GIGKFLHAAKKFAKAFVAEIMNS [compound 1354]
Activity [7]: 1 | Activity [2]: 1 | Activity [8]: 1

GIGKFLHSAKKFAKAFVAEIMNS [compound 1047]
Activity [7]: 1 | Activity [2]: 1 | Activity [8]: 1

GIGKFLHSAKKFGKAFVGEIMNS [compound 1116]
Activity [7]: 1 | Activity [2]: 1 | Activity [8]: 1

GIGKFLHSAKKFGKAFVGEIMNSKKKKKKKKKK [satpdb13107]
Activity [6]: 0 | Activity [9]: 0

GIGKFLKKAKKFAKAFVKIINN [compound 1117]
Activity [7]: 1 | Activity [2]: 1 | Activity [8]: 1

GIGKLFLHAAKKFAKAFVAEKMNS [satpdb10222]
Activity [1]: 0 | Activity [2]: 0

GIIKKIIIKKIIIKKIIIKKI [compound 1434]
Activity [1]: 1 | Activity [3]: 1 | Activity [4]: 1 | Activity [5]: 1

GIIKKIIKKI [compound 2839]
Activity [7]: 1 | Activity [2]: 1 | Activity [8]: 1

GIIKKIIKKIIKKI [compound 2840]
Activity [7]: 1 | Activity [2]: 1 | Activity [8]: 1

GIINTLQKYYSRVRGGRSAVLSSLPKEEQIGKSSTRGRKSSRRKK [satpdb11018]
Activity [1]: 0 | Activity [2]: 0

GILDKLKEFGISAARGVAQSLLNTTASCKLAKTC [satpdb13132]
Activity [6]: 0 | Activity [9]: 0

GILDSFKQFAKGVGKDLIKGAAQGVLSTMSCKLAKTC [satpdb11305]
Activity [1]: 0 | Activity [2]: 0

GILGKLWEGFKSIV [satpdb13792]
Activity (ACPs dataset D3 (sheet "D3"), label 1 = ACP, 0 = non-ACP, ref CancerPPD/SATPdb): 0 | Activity [9]: 0 | Activity (ACPs dataset D5, sheet "D5", label 1 = ACP, 0 = non-ACP, ref CancerPPD [45] and SATPdb): 0

GILGNIVGMGKQVVCGLSGLC [satpdb10178]
Activity [1]: 0 | Activity [2]: 0

GILLDKLKNFAKTAGKGVLQSLLNTASCKLSGQC [satpdb12360]
Activity [6]: 0 | Activity [2]: 0

GILNTIKSIASKLKRKAK [satpdb10259]
Activity [1]: 0 | Activity [2]: 0

GIPCAESCVWIPCTVTALLGCSCSNKVCYN [satpdb12637]
Activity [6]: 0 | Activity [2]: 0

GIPCGESCVWIPCISAAIGCSCKNKVCYRN [satpdb12462]
Activity [6]: 0 | Activity [2]: 0

GIPCGESCVYIPCLTSAIGCSCKSKVCYRN [satpdb13250]
Activity [6]: 0 | Activity [9]: 0

GIWDTIKSMGKVFAGKILQN [satpdb10030]
Activity [1]: 0 | Activity [2]: 0

GKIPVKAIKKAGAAIGKGLRAINIASTAHDVYSFFKPKHKKK [satpdb13363]
Activity [6]: 0 | Activity [9]: 0

GKWKKILGHLIR [compound 3645]
Activity [7]: 1 | Activity [2]: 1 | Activity [8]: 1

GKWKSLLKHILK [compound 3653]
Activity [7]: 1 | Activity [2]: 1 | Activity [8]: 1

GKWLSLLKHILK [compound 3661]
Activity [7]: 1 | Activity [2]: 1 | Activity [8]: 1

GKWMKLLKHILK [compound 3652]
Activity [7]: 1 | Activity [2]: 1 | Activity [8]: 1

GKWMSLLKHILK [compound 3649]
Activity [7]: 1 | Activity [2]: 1 | Activity [8]: 1

GKWMSLLKHIWK [compound 3655]
Activity [7]: 1 | Activity [2]: 1 | Activity [8]: 1

GKWMSLLKHWLK [compound 3656]
Activity [7]: 1 | Activity [2]: 1 | Activity [8]: 1

GKWMSLLKKILK [compound 3651]
Activity [7]: 1 | Activity [2]: 1 | Activity [8]: 1

GKWMSLWKHILK [compound 3657]
Activity [7]: 1 | Activity [2]: 1 | Activity [8]: 1

GKWSKILGHLIR [compound 3641]
Activity [7]: 1 | Activity [2]: 1 | Activity [8]: 1

GKWSKILGKLIR [compound 3644]
Activity [7]: 1 | Activity [2]: 1 | Activity [8]: 1

GLASFLGKALKAGLKIGSHLLGGAPQQ [satpdb10480]
Activity [1]: 0 | Activity [2]: 0

GLFAVIKKVAAVIKKL [compound 4120]
Activity [7]: 1 | Activity [2]: 1 | Activity [8]: 1

GLFAVIKKVAAVIRRL [compound 4129]
Activity [7]: 1 | Activity [2]: 1 | Activity [8]: 1

GLFAVIKKVAKVIKKL [compound 4138]
Activity [7]: 1 | Activity [2]: 1 | Activity [8]: 1

GLFAVIKKVASVIKKL [compound 4111]
Activity [7]: 1 | Activity [2]: 1 | Activity [8]: 1

GLFDIAKKVIGVIGSL [compound 1270]
Activity [7]: 1 | Activity [2]: 1 | Activity [8]: 1

GLFDIIKKIAESF [compound 1252]
Activity [7]: 1 | Activity [2]: 1 | Activity [8]: 1

GLFDIVKKIAGHIVSSI [compound 1297]
Activity [7]: 1 | Activity [2]: 1 | Activity [8]: 1

GLFDIVKKVVGAIGSL [compound 4407]
Activity [1]: 1 | Activity [3]: 1 | Activity [4]: 1 | Activity [5]: 1

GLFDIVKKVVGTLAGL [compound 4409]
Activity [1]: 1 | Activity [3]: 1 | Activity [4]: 1 | Activity [5]: 1

GLFDVIAKVASVIKKL [compound 4093]
Activity [7]: 1 | Activity [2]: 1 | Activity [8]: 1

GLFDVIKAVASVIGGL [compound 4057]
Activity [7]: 1 | Activity [2]: 1 | Activity [8]: 1

GLFDVIKKVAAVIGGL [compound 4066]
Activity [7]: 1 | Activity [2]: 1 | Activity [8]: 1

GLFDVIKKVASVIGGL [compound 1421]
Activity [7]: 1 | Activity [2]: 1 | Activity [8]: 1
